Values of other authors in patent US20220287355A1, “ORAL PRODUCTS WITH SELF-EMULSIFYING SYSTEM” (NICOVENTURES TRADING LIMITED, priority 2021, published 2022).

How the values were obtained:
[1] = not given; remark: listed apart in the source

SMILES: C=C(C)[C@@H]1CCC(C)=C[C@H]1c1c(O)cc(CCCCC)cc1O [CBD, cannabidiol]
- logP value: about 6.5
- solubility in an aqueous environment (e.g., saliva) [1]: insoluble
